Literature values as cited in US20060172368A1, “CGT1 as an antifungal target” (priority 2002, published 2006).

Settings: mice, DOX 2 mg/ml in 5% sucrose as drinking water, approx. 5 ml per day

## C[C@H]1c2cccc(O)c2C(=O)C2=C(O)[C@]3(O)C(=O)C(C(N)=O)=C(O)[C@@H](N(C)C)[C@@H]3[C@@H](O)[C@@H]21 [doxycycline]
  concentration of DOX in serum: more than 2 mg/ml of serum
